Source: paper PMC4280904 (Journal of Veterinary Pharmacology and Therapeutics, 2014)
Where two headings read alike, the source gives them in different places.

Key:
[1] = test system: CYP2E1; test: In vivo enzyme induction: nitrophenol hydroxylase; parameters: species or system Wistar rats; conditions: rats, 3–100 mg/kg p.o. once daily 7 days
[2] = test system: plasma protein; test: In vitro plasma protein binding; assay type: in vitro ADME; conditions: male, human
[3] = biological target: CYP2C19 (Homo sapiens, UniProt P33261); test: In vitro enzyme inhibition, recombinant CYP, fluorescent metabolites; assay type: in vitro ADME
[4] = biological target: CYP2D6 (Homo sapiens, UniProt P10635); test: as above; assay type: in vitro ADME
[5] = test system: pentylenetetrazole-induced convulsions; conditions: dogs, ref Löscher et al., 2004, cited from earlier work
[6] = test system: plasma proteins; test: Reversibility of protein binding; assay type: in vitro ADME; conditions: human plasma, incubation up to 2 h at 37 °C, TCA precipitation

Chain of CYP2D6 (P10635 whole entry): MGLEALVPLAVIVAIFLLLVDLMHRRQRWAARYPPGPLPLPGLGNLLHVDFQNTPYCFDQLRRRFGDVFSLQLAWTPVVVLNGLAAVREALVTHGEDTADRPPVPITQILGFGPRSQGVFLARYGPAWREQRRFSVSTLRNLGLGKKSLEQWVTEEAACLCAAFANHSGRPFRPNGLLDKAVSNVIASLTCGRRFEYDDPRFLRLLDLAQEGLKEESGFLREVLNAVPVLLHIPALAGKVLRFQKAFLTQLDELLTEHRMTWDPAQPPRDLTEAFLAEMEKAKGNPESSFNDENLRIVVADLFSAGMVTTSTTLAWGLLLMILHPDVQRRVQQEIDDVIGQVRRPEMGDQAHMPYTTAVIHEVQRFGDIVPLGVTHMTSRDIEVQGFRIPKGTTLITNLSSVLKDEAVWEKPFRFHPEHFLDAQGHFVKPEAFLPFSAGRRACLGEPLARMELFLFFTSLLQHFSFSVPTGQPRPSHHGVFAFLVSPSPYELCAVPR
Chain of CYP2C19 (P33261 whole entry): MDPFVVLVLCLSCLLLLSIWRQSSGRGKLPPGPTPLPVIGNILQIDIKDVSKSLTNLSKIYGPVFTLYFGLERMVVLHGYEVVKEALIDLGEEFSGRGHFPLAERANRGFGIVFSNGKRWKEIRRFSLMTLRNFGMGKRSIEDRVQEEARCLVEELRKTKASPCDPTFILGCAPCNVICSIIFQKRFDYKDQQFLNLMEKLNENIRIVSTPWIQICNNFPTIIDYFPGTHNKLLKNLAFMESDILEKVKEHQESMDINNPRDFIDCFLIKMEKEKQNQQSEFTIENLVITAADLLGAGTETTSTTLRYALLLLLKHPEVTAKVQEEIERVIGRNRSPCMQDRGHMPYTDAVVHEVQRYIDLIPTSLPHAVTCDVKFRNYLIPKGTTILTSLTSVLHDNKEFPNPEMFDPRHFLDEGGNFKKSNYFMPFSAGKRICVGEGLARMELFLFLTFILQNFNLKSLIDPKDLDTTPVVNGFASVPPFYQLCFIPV

## O=C1N=C(N2CCOCC2)CN1c1ccc(Cl)cc1 [Imepitoin, 1-(4-chlorophenyl)-4-morpholino-imidazolin-2-one]
[1]
  induction of CYP2E1: did not induce
[2]; heparinized plasma
  fraction unbound at 15 min, 0.1 μg/mL: 0.43
  fraction unbound at 15 min, 1 μg/mL: 0.41
  fraction unbound at 15 min, 10 μg/mL: 0.43
[2]; plasma (heparinized)
  fraction unbound at 15 min: 0.41 to 0.43
[3]
  IC50: > 100 µM
[3]; recombinant human CYP2C19
  Inhibition of the specific cytochrome P450 isoform IC50, 2C19: did not influence
[4]
  IC50: > 100 µM
[4]; recombinant human CYP2D6
  Inhibition of the specific cytochrome P450 isoform IC50, 2D6: did not influence
[5]; 5 mg/kg orally twice daily, 5 mg/kg
  elevation of threshold for pentylenetetrazole-induced convulsions: significant increase
[5]; 40 mg/kg twice daily, 40 mg/kg
  elevation of threshold for pentylenetetrazole-induced convulsions: much stronger elevation of threshold
[5]; 40 mg/kg twice daily, listed as imepitoin, 40 mg/kg
  elevation of threshold for pentylenetetrazole-induced convulsions: greatly enhanced the drug-induced effect
[5]; repeated administration for 28 days
  development of tolerance toward anticonvulsant activity: no development of tolerance
[6]
  radioactivity found in the washed precipitate (covalent binding): less than 0.5%
